Data on two molecules can be found in US8841233B2, “Herbicidal compositions comprising 4-amino-3-chloro-5-fluoro-6-(4-chloro-2-fluoro-3-methoxyphenyl) pyridine-2-carboxylic acid or a derivative thereof and 4-hydroxyphenyl-pyruvate dioxygenase (HPPD) inhibitors” (Dow Agrosciences LLC, priority 2012, dated 2014).

Assay [1] has as its system BRAPP. In words: Post-emergence foliar-applied weed control, greenhouse (Example I). The assay is classed as in vivo. The text has this:
(§1) Evaluation of Post-emergence Foliar-Applied Herbicidal Mixtures for Weed Control in Direct Seeded Rice
(§2) Seeds or nutlets of the desired test plant species were planted in a soil matrix prepared by mixing a loam or sandy loam soil (e.g., 28.6 percent silt, 18.8 percent clay, and 52.6 percent sand, with a pH of about 5.8 and an organic matter content of about 1.8 percent) and calcareous grit in an 80 to 20 ratio. The soil matrix was contained in plastic pots with a volume of 1 quart and a surface area of 83.6 square centimeters (cm^2). When required to ensure good germination and healthy plants, a fungicide treatment and/or other chemical or physical treatment was applied. The plants were grown for 8-22 days in a greenhouse with an approximate 14 h photoperiod which was maintained at about 29° C. during the day and 26° C. during the night. Nutrients (Peters Excel® 15-5-15 5-Ca 2-Mg and iron chelate) were applied in the irrigation solution as needed and water was added on a regular basis. Supplemental lighting was provided with overhead metal halide 1000-Watt lamps as necessary. The plants were employed for testing when they reached the first through fourth true leaf stage.
(§3) Treatments consisted of the acid or esters of 4-amino-3-chloro-5-fluoro-6-(4-chloro-2-fluoro-3-methoxy-phenyl)pyridine-2-carboxylic acid (Compound A), each formulated as an SC (suspension concentrate), and various herbicidal components alone and in combination. Forms of Compound A were applied on an acid equivalent basis.
(§4) Other herbicidal components were applied on an active ingredient basis and included 4-hydroxyphenyl pyruvate dioxygenase (HPPD)-inhibiting herbicides mesotrione formulated as Callisto®, sulcotrione formulated as Mikado®, pyrazolynate formulated as Sunbird® 10% GR, and benzobicyclon formulated as Benzobicyclon 3.5%.
(§5) Treatment requirements were calculated based upon the rates being tested, the concentration of active ingredient or acid equivalent in the formulation, and a 12 mL application volume at a rate of 187 L/ha.
(§6) For treatments comprised of formulated compounds, measured amounts of compounds were placed individually in 25 mL glass vials and diluted in a volume of 1.25% (v/v) Agri-Dex® crop oil concentrated to obtain 12× stock solutions. […] Application solutions were prepared by adding an appropriate amount of each stock solution (e.g., 1 mL) and diluted to the appropriate final concentrations with the addition of 10 mL of an aqueous mixture of 1.25% (v/v) crop oil concentrate so that the final spray solutions contained 1.25+/−0.05% (v/v) crop oil concentrate.
(§7) For treatments comprised of formulated and technical compounds, weighed amounts of the technical materials were placed individually in 25 mL glass vials and dissolved in a volume of 97:3 v/v acetone/DMSO to obtain 12× stock solutions, and measured amounts of the formulated compounds were placed individually in 25 mL glass vials and diluted in a volume of 1.5% (v/v) crop oil concentrate or water to obtain 12× stock solutions. […] Application solutions were prepared by adding an appropriate amount of each stock solution (e.g., 1 mL) and diluted to the appropriate final concentrations with the addition of an appropriate amount of an aqueous mixture of 1.5% (v/v) crop oil concentrate so that the final spray solutions contained 1.25% (v/v) crop oil concentrate. As required, additional water and/or 97:3 v/v acetone/DMSO was added to individual application solutions so that the final acetone and DMSO concentrations of the application solutions being compared were 8.1% and 0.25%, respectively.
(§8) All stock solutions and applications solutions were visually inspected for compound compatibility prior to application. Spray solutions were applied to the plant material with an overhead Mandel track sprayer equipped with a 8002E nozzles calibrated to deliver 187 L/ha over an application area of 0.503 m^2 at a spray height of 18 to 20 inches (46 to 50 cm) above average plant canopy height. […]

Assay [2] deals with ECHCO. Described as above. The assay is classed as in vivo, Echinochloa colona (L.) Link.
Text: as §1, §2, §3, §4, §5, §6, §7, §8

The subject of assay [3] is CYPIR. The description is as above. The assay is classed as in vivo, Cyperus iria L.
Text: as §1, §2, §3, §4, §5, §6, §7, §8

Assay [4] deals with IPOHE. The description is as above. The assay is classed as in vivo, Ipomoea hederacea Jacq.
Text: as §1, §2, §3, §4, §5, §6, §7, §8

Assay [5] has as its system SCPJU. The assay is described as above. The assay is classed as in vivo, Schoenoplectus juncoides (Roxb.) Palla.
Text: as §1, §2, §3, §4, §5, §6, §7, §8

Assay [6] deals with DIGSA. Described as above. The assay is classed as in vivo, Digitaria sanguinalis (L.) Scop.
Text: as §1, §2, §3, §4, §5, §6, §7, §8

Assay [7] deals with ECHCG. The assay is described as follows: In-water applied weed control, transplanted paddy rice, greenhouse (Example II). The assay is classed as in vivo, Echinochloa crusgalli (L.) Beauv. Here is the method: (§9) Evaluation of in-Water Applied Herbicidal Mixtures for Weed Control in Transplanted Paddy Rice
(§10) Weed seeds or nutlets of the desired test plant species were planted in puddled soil (mud) prepared by mixing a shredded, non-sterilized mineral soil (50.5 percent silt, 25.5 percent clay, and 24 percent sand, with a pH of about 7.6 and an organic matter content of about 2.9 percent) and water at a 1:1 volumetric ratio. The prepared mud was dispensed in 365 mL aliquots into 16-ounce (oz.) non-perforated plastic pots with a surface area of 86.59 square centimeters (cm^2) leaving a headspace of 3 centimeters (cm) in each pot. Mud was allowed to dry overnight prior to planting or transplanting. Rice seeds were planted in Sun Gro MetroMix® 306 planting mixture, which typically has a pH of 6.0 to 6.8 and an organic matter content of about 30 percent, in plastic plug trays. Seedlings at the second or third leaf stage of growth were transplanted into 840 mL of mud contained in 32-oz. non-perforated plastic pots with a surface area of 86.59 cm^2 4 days prior to herbicide application. The paddy was created by filling the headspace of the pots with 2.5 to 3 cm of water. When required to ensure good germination and healthy plants, a fungicide treatment and/or other chemical or physical treatment was applied. The plants were grown for 4-22 days in a greenhouse with an approximate 14 h photoperiod which was maintained at about 29′C during the day and 26° C. during the night. Nutrients were added as Osmocote® (19:6:12, N:P:K+ minor nutrients) at 2 g per 16-oz. pot and 4 g per 32-oz. pot. Water was added on a regular basis to maintain the paddy flood, and supplemental lighting was provided with overhead metal halide 1000-Watt lamps as necessary. The plants were employed for testing when they reached the first through fourth true leaf stage.
(§11) Treatments consisted of the acid or esters of 4-amino-3-chloro-5-fluoro-6-(4-chloro-2-fluoro-3-methoxy-phenyl)pyridine-2-carboxylic acid (compound A) each formulated as an SC (suspension concentrate) and various herbicidal components alone and in combination. Forms of compound A were applied on an acid equivalent basis.
(§12) Other herbicidal components were applied on an active ingredient basis and included 4-hydroxyphenyl pyruvate dioxygenase (HPPD)-inhibiting herbicides mesotrione formulated as Callisto®, sulcotrione formulated as Mikado®, pyrazolynate formulated as Sunbird® 10% GR, and benzobicyclon formulated as Benzobicyclon 3.5% or technical material.
(§13) Treatment requirements for each compound or herbicidal component were calculated based upon the rates being tested, the concentration of active ingredient or acid equivalent in the formulation, an application volume of 2 mL per component per pot, and an application area of 86.59 cm^2 per pot.
(§14) For formulated compounds, a measured amount was placed in an individual 100 or 200 mL glass vial and was dissolved in a volume of 1.25% (v/v) Agri-Dex® crop oil concentrate to obtain application solutions.
(§15) For technical grade compounds, a weighed amount was placed in an individual 100 to 200 mL glass vial and was dissolved in a volume of acetone to obtain concentrated stock solutions. […] The concentrated stock solutions obtained were diluted with an equivalent volume of an aqueous mixture containing 2.5% (v/v) crop oil concentrate so that the final application solutions contained 1.25% (v/v) crop oil concentrate.
(§16) Applications were made by injecting with a pipetter appropriate amounts of the application solutions, individually and sequentially, into the aqueous layer of the paddy. Control plants were treated in the same manner with the solvent blank. Applications were made so that all treated plant material received the same concentrations of acetone and crop oil concentrate.
(§17) The treated plants and control plants were placed in a greenhouse as described above and water was added as needed to maintain a paddy flood. […]

The test system of assay [8] is ECHOR. Described as above. The assay is classed as in vivo, Echinochloa oryzoides (Ard.) Fritsch. Here is the method:
as §9, §10, §11, §12, §13, §14, §15, §16, §17

The test system of assay [9] is FIMMI. The description is as above. The assay is classed as in vivo, Fimbristylis miliacea (L.) Vahl. The following applies: 35 gai/ha. Here is the method: as §9, §10, §11, §12, §13, §14, §15, §16, §17
Assay [10] relates to SCPMA. Described as above. The assay is classed as in vivo. The note with it: 35 gai/ha. On the procedure: as §9, §10, §11, §12, §13, §14, §15, §16, §17
Assay [11] has as its system ECHCG. The assay is described as follows: Post-emergence foliar-applied weed control, greenhouse (Example I). The assay is classed as in vivo, Echinochloa crusgalli (L.) Beauv.
Text: as §1, §2, §3, §4, §5, §6, §7, §8
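Wherever Visual Weed Control (%) - 20 DAA IPOHE Obs is given: visual score 0 no injury to 100 complete kill versus untreated plants.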

Take `CS(=O)(=O)c1ccc(C(=O)C2C(=O)CCCC2=O)c([N+](=O)[O-])c1` [Mesotrione, 2-[4-(methylsulfonyl)-2-nitrobenzoyl]-1,3-cyclohexanedione, reference compound]: the “Visual Weed Control (%) - 20 DAA BRAPP Obs” value in assay [1] (17.5 gai/ha) and in [1] (35 gai/ha) was 0% each time. The “Visual Weed Control (%) - 20 DAA ECHCO Obs” value in assay [2] (17.5 gai/ha), in [2] (35 gai/ha) and in assay [2] (70 gai/ha) was 0% each time. The entries for the “Visual Weed Control (%) - 20 DAA CYPIR Obs” value in [3] (17.5 gai/ha) and in [3] (35 gai/ha) were 0% and 50%, respectively. The “Visual Weed Control (%) - 20 DAA IPOHE Obs” value in assay [4] (35 gai/ha) is listed as 25%; in assay [4] (70 gai/ha) it was 50%. Moreover, the results for the “Visual Weed Control (%) - 20 DAA SCPJU Obs” value in assay [5] (17.5 gai/ha) and in assay [5] (35 gai/ha) were 50% and 80%, respectively. For the same molecule, in [6] (140 gaiha), the “Visual Weed Control (%) - 20 DAA DIGSA Obs” value stood at 58%. The “Visual Weed Control (%) - 20 DAA ECHCG Obs” value was 10% in assay [7] (35 gai/ha) and 25% in assay [7] (70 gai/ha). Besides, the “Visual Weed Control (%) - 20 DAA ECHOR Obs” value in [8] (140 gaiha) is 80%. For the same molecule, the “Visual Weed Control (%) -20 DAA ECHOR Obs” value in assay [8] (140 gaiha) worked out at 80%. The “Visual Weed Control (%) - 21 DAA FIMMI Obs” value in assay [9] is recorded as 78%. Besides, the “Visual Weed Control (%) - 21 DAA SCPMA Obs” value in assay [10] is recorded as 80%.

As for `CS(=O)(=O)c1ccc(C(=O)C2C(=O)CCCC2=O)c(Cl)c1` [Sulcotrione, 2-[2-chloro-4-(methylsulfonyl)benzoyl]-1,3-cyclohexanedione, reference compound], the “Visual Weed Control (%) - 20 DAA BRAPP Obs” value in [1] (37.5 gai/ha) is 0%; in assay [1] (75 gai/ha) it was 20%; in [1] (150 gai/ha), 60%. The “Visual Weed Control (%) - 20 DAA ECHCO Obs” value in assay [2] (37.5 gai/ha) came to 15%; in assay [2] (75 gai/ha), 35%; in assay [2] (150 gai/ha), 95%. Further, in assay [4] (37.5 gai/ha), the “Visual Control (%) - 20 DAA IPOHE Obs” value was 20%. Besides, the “Visual Weed Control (%) - 20 DAA IPOHE Obs” value in assay [4] (37.5 gai/ha) worked out at 20%; in [4] (75 gai/ha), 30%; in assay [4] (150 gai/ha), 80%. Further, in assay [6] (37.5 gai/ha), the “Visual Weed Control (%) - 20 DAA DIGSA Obs” value stood at 25%. Moreover, the “Visual Weed Control (%) - 20 DAA ECHCG Obs” value is on record as 0% in [11] (37.5 gai/ha), 20% in [11] (75 gai/ha), 95% in assay [11] (150 gai/ha) and 0% in assay [7] (22.5 gai/ha). Moreover, in assay [8] (22.5 gai/ha), the “Visual Weed Control (%) - 20 DAA ECHOR Obs” value is 10%.
